# Measured values from patent publication US20260022094A1, “Compounds for the Treatment of Neurodegenerative Diseases” (Celgene Corporation, priority 2022, published 2026).
# Biological target: T1, S1P5 receptors (Homo sapiens, UniProt Q9H228)
# T1 construct: expressed in transfected cells; host or cells: CHO cells (membranes)
# Test: [35S]-GTPγS binding assay on CHO-S1P5 membranes (S1P5 agonism)
# Assay type: biochemical
# Details: membranes of CHO cells expressing recombinant S1P5; measure of S1P5 agonism
# Description: CHO cells expressing recombinant S1P5 receptors were cultured in 500 cm^2 culture trays and, once confluent, rinsed and detached with cell-lifting buffer (10 mM HEPES, 154 mM NaCl, 6.85 mM EDTA, pH 7.4). Cells were then pelleted by centrifugation, resuspended, and homogenized in membrane preparation buffer (10 mM HEPES and 10 mM EDTA, pH 7.4) using a Polytron PT 1200E homogenizer (Kinematica, Luzern, Switzerland). Cellular proteins were pelleted by centrifugation at 48,000×g at 4° C. for 30 minutes. The resulting supernatant was discarded, and the pellet was re-suspended again in membrane preparation buffer, homogenized for a second time, and then centrifuged again as described above. The final cellular protein pellet was suspended in ice cold resuspension buffer (10 mM HEPES and 0.1 mM EDTA, pH 7.4), divided into aliquots, and stored at −80° C. until use.
# Functional binding assays for [^35S]-GTPγS were performed in 96-well non-binding surface plates with a final volume of 200 μL. The test compounds were serially diluted in DMSO and added to assay plates using a Tecan D300E digital printer with a total volume of 0.4 μL. The control sphingosine-1-phosphate (SIP) was prepared separately by preparing a 400 µM stock solution from a 100 nmol pellet of S1P in 10 mM Na2CO3 with 2% β-cyclodextrin. The serial dilution of S1P was done using complete assay buffer (20 mM HEPES, 10 mM MgCl2, 100 mM NaCl, 1 mM EDTA, 0.1% fatty acid free bovine serum albumin (BSA), and 30 μg/mL saponin, pH 7.4) and transferred to wells already containing 0.4 μL DMSO. All the wells were then loaded to a total volume of 40 μL of complete assay buffer, except the non-specific binding (NSB) wells. For NSB wells, 40 μL/well of 50 μM GTPγS (Sigma Aldrich, cat #G8634, St. Louis, MO) was added to wells containing 0.4 μL of DMSO. The assay was started by the addition of 120 μL/well of CHO-SIP receptor membrane solution containing 40 μg/mL of membrane protein, 16.67 μM guanosine diphosphate (GDP; Sigma Aldrich, cat #G7127, St. Louis, MO), and 2.5 mg/mL of WGA PVT SPA beads in complete buffer. Assay plates were then sealed and incubated at room temperature with gentle agitation for 30 minutes. Next, 40 μL/well of 1 nM of [^35S]-GTPγS (PerkinElmer, cat #NEG030X^250UC, Waltham, MA) in basic assay buffer (20 mM HEPES, 10 mM MgCl2, 100 mM NaCl, and 1 mM EDTA, pH7.4) was added to the assay plates to yield a final concentration of […] and the plates were further incubated for 40 minutes at room temperature with gentle agitation. The assay was terminated by centrifugation of the plates at 1000 rpm for 3 minutes using an Eppendorf 5810R centrifuge (Eppendorf, Hamburg, Germany) and G protein bound radioactivity was quantitated using a MicroBeta2 microplate scintillation counter (PerkinElmer, Waltham, MA). As G protein bound radioactivity directly correlates to receptor activation and coupling to the G protein, this assay is a measure of S1P5 agonism.
# T1 sequence (Q9H228 whole entry): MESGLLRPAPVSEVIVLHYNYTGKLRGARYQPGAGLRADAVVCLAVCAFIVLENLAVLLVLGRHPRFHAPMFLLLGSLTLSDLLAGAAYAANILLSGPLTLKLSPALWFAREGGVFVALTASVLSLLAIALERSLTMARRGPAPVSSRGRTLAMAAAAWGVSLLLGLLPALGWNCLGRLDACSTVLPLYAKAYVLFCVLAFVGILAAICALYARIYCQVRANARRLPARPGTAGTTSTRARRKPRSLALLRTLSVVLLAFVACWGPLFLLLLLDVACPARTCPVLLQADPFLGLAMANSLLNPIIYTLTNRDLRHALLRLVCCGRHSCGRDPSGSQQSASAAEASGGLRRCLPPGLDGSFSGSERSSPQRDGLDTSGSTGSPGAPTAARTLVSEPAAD
row,EC50 [µM],Compound
1,0.1 to 1,"CC1(O)CN(Cc2ccc(C#Cc3c(F)cccc3F)cc2)C1 [Compound 28, 1-(4-((2,6-difluoro-phenyl)ethynyl)benzyl)-3-methylazetidin-3-ol]"
2,0.001 to 0.01,"Cc1cc(-c2ccc(C3CC3)c(Cl)c2)c(C)c2c1C(N1CC(C)(O)C1)CC2 (single isomer, unassigned) [Compound 26a, 1-[5-(3-chloro-4-cyclopropyl-phenyl)-4,7-dimethyl-indan-1-yl]-3-methyl-azetidin-3-ol]"
3,1 to 10,"CC1(O)CCN(C2CCc3cc(C4CN(c5c(Cl)cccc5Cl)C4)ccc32)CC1 (stereo not shown) [Compound 8, 1-(5-(1-(2,6-dichlorophenyl)azetidin-3-yl)-2,3-dihydro-1H-inden-1-yl)-4-methyl-piperidin-4-ol]"
4,0.01 to 0.1,"CC1(O)CN(C2CCc3cc(-c4ccc(C5CC5)c(F)c4)ccc32)C1 (single isomer, unassigned) [Compound 4a, 1-(5-(4-cyclopropyl-3-fluorophenyl)-2,3-dihydro-1H-inden-1-yl)-3-methyl azetidin-3-ol]"
5,0.1 to 1,"Cc1cc(C2CN(c3c(Cl)cccc3Cl)C2)cc(C)c1CN1CCC(C)(O)CC1 [Compound 34, 1-(4-(1-(2,6-dichlorophenyl)azetidin-3-yl)-2,6-dimethylbenzyl)-4-methylpiperidin-4-ol]"
6,1 to 10,"Cc1cc(C2CN(c3ccccc3)C2)cc(C)c1CN1CC(C)(O)C1 [Compound 43, 1-(2,6-dimethyl-4-(1-phenylazetidin-3-yl)benzyl)-3-methylazetidin-3-ol]"
7,0.1 to 1,"Cc1cc(C2CN(c3c(Cl)cccc3Cl)C2)cc(C)c1CN1CC(O)(CF)C1 [Compound 39, 1-(4-(1-(2,6-dichlorophenyl)azetidin-3-yl)-2,6-dimethylbenzyl)-3-(fluoromethyl) azetidin-3-ol]"
8,0.1 to 1,"CCc1cc(C2CN(c3c(Cl)cccc3Cl)C2)cc(CC)c1CN1CC(C)(O)C1 [Compound 52, 1-(4-(1-(2,6-dichlorophenyl)azetidin-3-yl)-2,6-diethylbenzyl)-3-methylazetidin-3-ol]"
9,0.001 to 0.01,"Cc1c(OCc2c(Cl)cccc2Cl)ccc2c1CCC2N1CC(C)(O)C1 (single isomer, unassigned) [Compound 19a, 1-[5-[(2,6-dichlorophenyl)methoxy]-4-methyl-indan-1-yl]-3-methyl-azetidin-3-ol]"
10,0.1 to 1,"Cc1cc(C2CN(c3c(Cl)cccc3Cl)C2)cc(C)c1CN1CC(O)(C(F)(F)F)C1 [Compound 41, 1-(4-(1-(2,6-dichlorophenyl)azetidin-3-yl)-2,6-dimethylbenzyl)-3-(trifluoromethyl) azetidin-3-ol]"
11,0.1 to 1,"CC1(O)CN(Cc2ccc(N3CC(c4c(Cl)cccc4Cl)C3)cn2)C1 [Compound 66, 1-((5-(3-(2,6-dichlorophenyl)azetidin-1-yl)pyridin-2-yl)methyl)-3-methylazetidin-3-ol]"
12,0.001 to 0.01,"Cc1cc(-c2ccc(C3CC3)c(Cl)c2)cc2c1C(N1CC(C)(O)C1)CC2 (single isomer, unassigned) [Compound 10b, 1-[5-(3-chloro-4-cyclopropyl-phenyl)-7-methyl-indan-1-yl]-3-methyl-azetidin-3-ol]"
13,0.001 to 0.01,"Cc1cc(OCc2c(Cl)cccc2Cl)cc2c1C(N1CC(C)(O)C1)CC2 (single isomer, unassigned) [Compound 15a, 1-[5-[(2,6-dichlorophenyl)methoxy]-7-methyl-indan-1-yl]-3-methyl-azetidin-3-ol]"
14,0.01 to 0.1,"Cc1cc(C2CN(c3c(F)cccc3F)C2)cc(C)c1CN1CC(C)(O)C1 [Compound 42, 1-(4-(1-(2,6-difluorophenyl)azetidin-3-yl)-2,6-dimethylbenzyl)-3-methylazetidin-3-ol]"
15,1 to 10,"Cc1cc(C2CN(c3cccc(F)c3)C2)cc(C)c1CN1CC(C)(O)C1 [Compound 45, 1-(4-(1-(3-fluorophenyl)azetidin-3-yl)-2,6-dimethylbenzyl)-3-methylazetidin-3-ol]"
16,0.001 to 0.01,"Cc1c(-c2ccc(C3CC3)c(Cl)c2)cc2c(c1C)C(N1CC(C)(O)C1)CC2 (single isomer, unassigned) [Compound 27a, 1-(5-(3-chloro-4-cyclopropylphenyl)-6,7-dimethyl-2,3-dihydro-1H-inden-1-yl)-3-methylazetidin-3-ol]"
17,0.1 to 1,"CC1(O)CN(Cc2ccc(C3CN(c4c(Cl)cccc4Cl)C3)cc2F)C1 [Compound 61, 1-(4-(1-(2,6-dichlorophenyl)azetidin-3-yl)-2-fluorobenzyl)-3-methylazetidin-3-ol]"
18,0.1 to 1,"Cc1cc(-c2ccc(C3CC3)c(Cl)c2)cc2c1C(N1CCC(C)(O)C1)CC2 (stereo not shown) [Compound 12, 1-(5-(3-chloro-4-cyclopropylphenyl)-7-methyl-2,3-dihydro-1H-inden-1-yl)-3-methylpyrrolidin-3-ol]"
19,0.001 to 0.01,"Cc1cc(N2CC(c3c(Cl)cccc3Cl)C2)c(C)cc1CN1CC(C)(O)C1 [Compound 62, 1-(4-(3-(2,6-dichlorophenyl)azetidin-1-yl)-2,5-dimethylbenzyl)-3-methylazetidin-3-ol]"
20,0.001 to 0.01,"Cc1cc(-c2ccc(C3CC3)c(Cl)c2)c(C)c2c1C(N1CC(C)(O)C1)CC2 (single isomer, unassigned) [Compound 26b, 1-[5-(3-chloro-4-cyclopropyl-phenyl)-4,7-dimethyl-indan-1-yl]-3-methyl-azetidin-3-ol]"
21,0.001 to 0.01,"Cc1cc(CCc2c(Cl)cccc2Cl)cc2c1C(N1CC(C)(O)C1)CC2 (single isomer, unassigned) [Compound 14b, 1-[5-[2-(2,6-dichlorophenyl)ethyl]-7-methyl-indan-1-yl]-3-methyl-azetidin-3-ol]"
22,0.1 to 1,"CCC1(O)CN(Cc2c(C)cc(C3CN(c4c(Cl)cccc4Cl)C3)cc2C)C1 [Compound 38, 1-(4-(1-(2,6-dichlorophenyl)azetidin-3-yl)-2,6-dimethylbenzyl)-3-ethylazetidin-3-ol]"
23,0.1 to 1,"Cc1cc(N2CC(c3c(Cl)cccc3Cl)C2)cc(C)c1CN1CCC(C)(O)CC1 [Compound 36, 1-(4-(3-(2,6-dichlorophenyl)azetidin-1-yl)-2,6-dimethylbenzyl)-4-methylpiperidin-4-ol]"
24,0.01 to 0.1,"Cc1cc(C2CN(c3c(Cl)cccc3Cl)C2)cc(Cl)c1CN1CC(C)(O)C1 [Compound 49, 1-(2-chloro-4-(1-(2,6-dichlorophenyl)azetidin-3-yl)-6-methylbenzyl)-3-methylazetidin-3-ol]"
25,0.01 to 0.1,"Cc1cc2c(cc1C#Cc1cccc(F)c1)CCC2N1CC(C)(O)C1 (single isomer, unassigned) [Compound 22a, 1-[5-[2-(3-fluorophenyl)ethynyl]-6-methyl-indan-1-yl]-3-methyl-azetidin-3-ol]"
26,0.01 to 0.1,"CC1(O)CN(Cc2ccc(C3CN(c4c(Cl)cccc4Cl)C3)c3ccccc23)C1 [Compound 55, 1-((4-(1-(2,6-dichlorophenyl)azetidin-3-yl)naphthalen-1-yl)methyl)-3-methylazetidin-3-ol]"
27,0.001 to 0.01,"Cc1cc2c(c(C)c1-c1ccc(C3CC3)c(Cl)c1)CCC2N1CC(C)(O)C1 (single isomer, unassigned) [Compound 25b, 1-(5-(3-chloro-4-cyclopropylphenyl)-4,6-dimethyl-2,3-dihydro-1H-inden-1-yl)-3-methylazetidin-3-ol]"
28,1 to 10,"CC1(O)CN(Cc2ccc(C3CN(c4c(Cl)cccc4Cl)C3)nc2)C1 [Compound 58, 1-((6-(1-(2,6-dichlorophenyl)azetidin-3-yl)pyridin-3-yl)methyl)-3-methylazetidin-3-ol]"
